Laboratory results reported in US20040121316A1 (priority 2002, published 2004).
Read-outs that look alike come from different tables or passages of the source. Peptide text beside a SMILES is read from it. * marks the point of attachment. MeOSuc = COC(=O)CCC(=O)*; CH2Cl = ClC*

Columns and labels:
WT HIV-1 = assay: microbe, parasite or virus in culture; format: cell-based
[1] = test system: recombinant HIV-1 10I 48V 54V 82A; assay: microbe, parasite or virus in culture; format: cell-based; conditions: Human immunodeficiency virus 1, MT4, read-out: Cell-based assay (MT-4) EC50/nM 48V 54V 82A
[2] = test system: recombinant HIV-1 30N 50S 82I 88D; assay: microbe, parasite or virus in culture; format: cell-based; conditions: Human immunodeficiency virus 1, MT4, read-out: Cell-based assay (MT-4) EC50/nM 30N 82I 88D
[3] = test system: recombinant HIV-1 10I 84V 71V 73S 90M; assay: microbe, parasite or virus in culture; format: cell-based; conditions: Human immunodeficiency virus 1, MT4, read-out: Cell-based assay (MT-4) EC50/nM 84V 90M
HIV-1 protease 84V90M = biological target: T1, HIV-1 protease 84V90M (Human immunodeficiency virus type 1 group M subtype B, UniProt P04585, I572V/L578M); assay: Enzymatic assay, IC50 against 84V90M mutant protease; format: biochemical
T1 construct: synthetic hexapeptide substrate cleavage by HIV-1 protease

[4] = test system: wild-type HIV-1 strain IIIB; assay: microbe, parasite or virus in culture; format: cell-based; conditions: Human immunodeficiency virus 1, IIIB
[5] = test system: recombinant HIV-1 strains with resistance mutations in the protease gene; assay: Cross-Resistance Profile Assay, whole panel; format: cell-based
in vivo = conditions: beagle, dog, po
in vitro = conditions: human
MT-2 cells [6] = test system: MT-2 cells
[7] = test system: MT-2 cells, stimulated and quiescent PBMC
MT-2 cells [8] = test system: MT-2 cells; remark: listed apart in the source
[9] = test system: PBMC in human whole blood
[10] = not given; remark: listed apart in the source
[11] = not given; remark: listed apart in the source
[12] = biological target: porcine liver carboxylesterase (PLCE) (Sus scrofa, UniProt Q29550); format: biochemical; conditions: read-out: IC50 (μM) PLCE
porcine liver carboxylesterase (PLCE), sequence (Q29550 whole entry): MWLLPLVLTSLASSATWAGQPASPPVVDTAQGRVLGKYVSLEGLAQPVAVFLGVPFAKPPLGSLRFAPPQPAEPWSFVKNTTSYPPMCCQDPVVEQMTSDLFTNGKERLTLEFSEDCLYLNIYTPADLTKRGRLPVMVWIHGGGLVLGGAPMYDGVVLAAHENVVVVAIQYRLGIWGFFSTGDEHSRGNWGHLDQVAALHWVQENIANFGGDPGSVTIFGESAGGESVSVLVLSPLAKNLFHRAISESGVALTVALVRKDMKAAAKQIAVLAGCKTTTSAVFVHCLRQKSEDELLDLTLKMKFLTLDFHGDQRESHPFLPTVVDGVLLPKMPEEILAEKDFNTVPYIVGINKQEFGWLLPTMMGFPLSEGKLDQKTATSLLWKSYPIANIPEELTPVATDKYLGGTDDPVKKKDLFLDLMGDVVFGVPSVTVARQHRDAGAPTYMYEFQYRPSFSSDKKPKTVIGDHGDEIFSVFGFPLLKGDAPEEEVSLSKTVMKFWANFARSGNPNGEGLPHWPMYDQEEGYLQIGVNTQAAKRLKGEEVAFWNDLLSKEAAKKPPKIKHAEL

[13] = test system: recombinant HIV-1 46I 47V 50V; assay: microbe, parasite or virus in culture; format: cell-based; conditions: Human immunodeficiency virus 1, MT4, read-out: Cell-based assay (MT-4) EC50/nM 47I 50V
[14] = test system: recombinant HIV-1 10I 48V 71V 82A 90M; assay: microbe, parasite or virus in culture; format: cell-based; conditions: Human immunodeficiency virus 1, MT4, read-out: Cell-based assay (MT-4) EC50/nM 48V 82A 90M
[15] = test system: recombinant HIV-1 48V 54V 71V 82S; assay: microbe, parasite or virus in culture; format: cell-based; conditions: Human immunodeficiency virus 1, MT4, read-out: Cell-based assay (MT-4) EC50/nM 48V 54V 82S
[16] = Human immunodeficiency virus 1, MT4, read-out: Cell-based assay (MT-4) EC50/nM WT
[17] = XTT-based cytopathic assay, read-out: EC50 WT HIV-1
[18] = resistance = 5-fold and higher change in EC50 of the mutant relative to wild-type, 11 mutant viruses

In the case of O=C1N(Cc2ccccc2)C(Cc2ccccc2)C(O)C(O)C(Cc2ccc(OCP(=O)(OCc3ccccc3)OCc3ccccc3)cc2)N1Cc1ccccc1 (stereo not shown), the EC50 (WT HIV-1; [16]) is reported as 1770 nM, the EC50 [1] is reported as > 6000 nM and the EC50 [2] is reported as 3140 nM. The EC50 [3] was > 6000 nM and the IC50 (HIV-1 protease 84V90M) was 0.158 µM.

For O=C1N(Cc2ccccc2)C(Cc2ccccc2)C(O)C(O)C(Cc2ccc(OCP(=O)(O)O)cc2)N1Cc1ccccc1 (stereo not shown), the EC50 (WT HIV-1; [16]) was > 6000 nM, the EC50 [3] was > 6000 nM and the IC50 (HIV-1 protease 84V90M) was 0.21 µM.

In the case of CC(C)CN(C[C@@H](O)[C@H](Cc1ccccc1)NC(=O)O[C@H]1CCOC1)S(=O)(=O)c1ccc(N)cc1 [Amprenavir, reference compound], the EC50 [4] is reported as < 0.05 µM, the EC50 ([4]; MT2, 120 h, read-out: Anti-HIV-1 Cell Culture Activity EC50) is reported as 0.016 ± 0.0022 µM and the “Total No. of Resistant Viruses” value ([5]; {}) is reported as 4. The AUC (in vivo) was 102 µM·h, the half-life (in vivo) was 1.7 h and the CC50 (in vitro) was > 50 µM.

For COc1ccc(S(=O)(=O)N(CC(C)C)C[C@@H](O)[C@H](Cc2ccc(P(=O)(O)O)cc2)NC(=O)O[C@H]2CO[C@H]3OCC[C@H]32)cc1 [Compound 27], the CC50 (MT-2 cells [6]) was > 100 µM.

CCOP(=O)(OCC)c1ccc(CC(NC(=O)OC2COC3OCCC23)C(O)CN(CC(C)C)S(=O)(=O)c2ccc(OC)cc2)cc1 (stereo not shown) [Compound 28] gave a CC50 (MT-2 cells [6]) of 70 µM.

In the case of CCCCOC(=O)C(C)NP(=O)(COc1ccc(CC(NC(=O)OC2COC3OCCC23)C(O)CN(CC(C)C)S(=O)(=O)c2ccc(OC)cc2)cc1)NC(C)C(=O)OCCCC (stereo not shown) [GS-16503], the EC50 (WT HIV-1; [17]) is reported as 16 nM, the “Total No. of Resistant Viruses” value [5, 18] is reported as 0 and the intracellular metabolites formed [7] is reported as “Metabolite X and GS-8373”. For the same compound, the “Metabolism (conversion to acid metabolites), dependence on concentration” value (MT-2 cells [8]) was “concentration-dependent”, the “increase in conversion to acid metabolites at 1 μM vs. 10 μM” value (MT-2 cells [8]) was 3 fold and the “Intracellular Acid Metabolite Concentration” value [9] was 279 ± 47 µM. For the same compound, the “Intracellular Concentration, Acid Metabolite” value [9] was 279 ± 47 µM, the “Intracellular Concentration, Prodrug” value [9] was 61 ± 40 µM and the “Intracellular Prodrug” value [9] was 61 ± 40 µM. The “Intracellular Prodrug and Metabolites Concentration, Total” value [9] was 340 ± 35 µM, the “Intracellular Prodrug and Metabolites Total” value [9] was 340 ± 35 µM and the “Major Intracellular Metabolites” value [9] was “X, GS-8373”. The “Cell-Associated PI, Prodrug” value (quiescent PBMC) was 0 pmol/mln cells, the “composition of metabolites in PBMC” value (quiescent PBMC) was “equimolar mixture of metabolite X and GS-8373” and the “PBMC Extract T1/2” value was 0.033 h. The “PBMC Extract T1/2, min” value was 0.033 h, the “Dog Plasma T1/2” value [10] was 6.13 h and the “Dog Plasma T1/2, min” value [10] was 6.13 h. The “Human Serum T1/2” value [11] was >>400 min and the “Human Serum T1/2, min” value [11] was >>400 min.

With CCOC(=O)C(C)NP(=O)(COc1ccc(CC(NC(=O)OC2COC3OCCC23)C(O)CN(CC(C)C)S(=O)(=O)c2ccc(OC)cc2)cc1)Oc1ccccc1 (stereo not shown) [GS-16571] the EC50 (WT HIV-1; [17]) was 22 nM, the “Total No. of Resistant Viruses” value [5, 18] was 0 and the intracellular metabolites formed [7] was “Metabolite X and GS-8373”. The “Intracellular Acid Metabolite Concentration” value [9] was 319 ± 112 µM, the “Intracellular Concentration, Acid Metabolite” value [9] was 319 ± 112 µM and the “Intracellular Concentration, Prodrug” value [9] was 137 ± 62 µM. The “Intracellular Prodrug” value [9] was 137 ± 62 µM, the “Intracellular Prodrug and Metabolites Concentration, Total” value [9] was 432 ± 208 µM and the “Intracellular Prodrug and Metabolites Total” value [9] was 432 ± 208 µM. The “Major Intracellular Metabolites” value [9] was “X, GS-8373”, the “PBMC Extract T1/2” value was 0.817 h and the “PBMC Extract T1/2, min” value was 0.817 h. For the same compound, the “Dog Plasma T1/2” value [10] was 2.1 h, the “Dog Plasma T1/2, min” value [10] was 2.1 h and the “Human Serum T1/2” value [11] was 110 min. The “Human Serum T1/2, min” value [11] was 110 min.

For CCOC(=O)C(C)OP(=O)(COc1ccc(C[C@H](NC(=O)O[C@H]2CO[C@H]3OCC[C@H]32)[C@H](O)CN(CC(C)C)S(=O)(=O)c2ccc(OC)cc2)cc1)Oc1ccccc1 (stereo partly shown) [GS-17394], the intracellular metabolites formed [7] was “Metabolite LX”, the “Metabolism (conversion to acid metabolites), dependence on concentration” value (MT-2 cells [8]) was “independent” and the “Intracellular Acid Metabolite Concentration” value [9] was 629 ± 303 µM. For the same compound, the “Intracellular Concentration, Acid Metabolite” value [9] was 629 ± 303 µM, the “Intracellular Concentration, Prodrug” value [9] was 69 ± 85 µM and the “Intracellular Prodrug” value [9] was 69 ± 85 µM. For the same compound, the “Intracellular Prodrug and Metabolites Concentration, Total” value [9] was 698 ± 301 µM, the “Intracellular Prodrug and Metabolites Total” value [9] was 698 ± 301 µM and the “Cell-Associated PI, Prodrug” value (quiescent PBMC) was 0 pmol/mln cells. For the same compound, the “composition of metabolites in PBMC” value (quiescent PBMC) was “only metabolite LX”, the “PBMC Extract T1/2” value was 0.25 h and the “PBMC Extract T1/2, min” value was 0.25 h. The “Dog Plasma T1/2” value [10] was 2.4 h, the “Dog Plasma T1/2, min” value [10] was 2.4 h and the “Human Serum T1/2” value [11] was 49 min. For the same compound, the “Human Serum T1/2, min” value [11] was 49 min.

For COC(=O)CCC(=O)N[C@@H](C)C(=O)N[C@@H](C)C(=O)N1CCC[C@H]1C(=O)N[C@@H](C)C(=O)CCl [MeOSuC-Ala-Ala-Pro-Ala-CMK] (MeOSuc-AAPA-CH2Cl), the IC50 [12] was > 1000 µM.

With COC(=O)CCC(=O)N[C@@H](C)C(=O)N[C@@H](C)C(=O)N1CCC[C@H]1C(=O)N[C@H](C(=O)CCl)C(C)C [MeOSuc-Ala-Ala-Pro-Val-CMK] (MeOSuc-AAPV-CH2Cl) the IC50 [12] was > 1000 µM.

In the case of Cc1c(O)cccc1C(=O)N[C@@H](CSc1ccccc1)[C@H](O)CN1C[C@H]2CCCC[C@H]2C[C@H]1C(=O)NC(C)(C)C [Nelfinavir], the EC50 [4] is reported as < 0.05 µM, the “Total No. of Resistant Viruses” value ([5]; {}) is reported as 9 and the “distribution between cytosol and membrane fractions” value (quiescent PBMC) is reported as “present only in the membrane fractions”. The AUC (in vivo) was 33 µM·h and the half-life (in vivo) was 3 h.

For CCOP(=O)(COc1ccc(CC2C(O)C(O)C(Cc3ccc(OC)cc3)N(Cc3cccc(N)c3)C(=O)N2Cc2cccc(N)c2)cc1)OCC (stereo not shown) [OCH3/Ph-mNH2/OCH2PO3Et2], the EC50 (WT HIV-1; [16]) was 63 nM, the EC50 [1] was 202 nM and the EC50 [13] was 36 nM. It also gave an EC50 [2] of 18 nM, an EC50 [14] of 102 nM and an EC50 [15] of 117 nM. It also gave an EC50 [3] of 535 nM and an IC50 (HIV-1 protease 84V90M) of 0.056 µM.

Compound CCOP(=O)(CCNC(=O)Oc1ccc(CC2C(O)C(O)C(Cc3ccc(OC)cc3)N(Cc3ccc(O)cc3)C(=O)N2Cc2ccc(O)cc2)cc1)OCC (stereo not shown) [OCH3/Ph-pOH/OCONH(CH2)2PO3Et2] has an EC50 (WT HIV-1; [16]) of 33 nM, an EC50 [1] of 74 nM and an EC50 [13] of 223 nM. The EC50 [2] was 31 nM, the EC50 [14] was 55 nM and the EC50 [15] was 51 nM. The EC50 [3] was 495 nM and the IC50 (HIV-1 protease 84V90M) was 0.049 µM.
